Assay results published in PubChem BioAssay (NCI).
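Step 1: Grow cells in 96-well plates. Step 2: Expose to compound for 48 hours at 5 concentrations. Step 3: Interpolate endpoints linearly; if unreached, use highest concentration. TGI is the concentration that stops growth completely.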

Columns and labels:
Assay in all cases: NCI tumour cell line growth inhibition, 48 h
[1] = tested on: M14 melanoma
[2] = tested on: NCI-H23 lung
[3] = tested on: HCT-116 colon
[4] = tested on: BT-549 breast
[5] = tested on: MDA-MB-435
[6] = tested on: SNB-75 CNS
[7] = tested on: NCI-H460 lung
[8] = tested on: OVCAR-5 ovarian
[9] = tested on: OVCAR-4 ovarian
[10] = tested on: SK-MEL-2 melanoma

Which TGI [1] does the source give for `O=c1[nH]c2ccc(C(F)(F)F)cc2nc1-c1ccccc1` here?
The TGI was over 100 µM.

And the TGI [2]?
Its TGI is over 100 µM.

What about the TGI [3] of the same molecule?
The TGI was over 100 µM.

And the TGI [4]?
Its TGI is over 100 µM.

And the TGI [5]?
Its TGI is over 100 µM.

What about the TGI [6] of the same molecule?
Its TGI is over 100 µM.

And the TGI [7]?
Its TGI is over 100 µM.

And the TGI [8]?
Its TGI is over 100 µM.

Which results are given for `CN(C)c1nc(N(C)C)nc(N(C)C)n1`?
TGI [9]: > 143 µM; TGI [10]: > 150 µM; TGI [1]: > 150 µM; TGI [2]: > 143 µM; TGI [3]: > 150 µM; TGI [4]: > 150 µM; TGI [5]: > 150 µM; TGI [6]: 149 µM; TGI [7]: > 150 µM; TGI [8]: > 150 µM

With `CC(C)(C)OC(=O)[N+](=N)C(=O)C1CCC(=O)N1C(=O)OCc1ccccc1` (stereo not given) as the molecule, how does the TGI [9] read?
The TGI was over 100 µM.

What about the TGI [1] of the same molecule?
The TGI was over 100 µM.

And the TGI [2]?
Its TGI is over 100 µM.

And the TGI [3]?
Its TGI is over 100 µM.

What about the TGI [4] of the same molecule?
Its TGI is over 100 µM.

What about the TGI [5] of the same molecule?
Its TGI is over 100 µM.

What about the TGI [6] of the same molecule?
Its TGI is over 100 µM.

And the TGI [7]?
Its TGI is over 100 µM.

And the TGI [8]?
The TGI was over 100 µM.

What does the source list for `Cc1ccc2c(c1)SSSSS2`?
TGI [9]: 37.2 µM; TGI [1]: 58.6 µM; TGI [2]: 43 µM; TGI [3]: 30.6 µM; TGI [4]: 39.1 µM; TGI [5]: 38.8 µM; TGI [6]: 49.2 µM; TGI [7]: 32.5 µM; TGI [8]: 46.9 µM

Which results are given for `O=c1c2ccccc2nc2n1NC(c1c(Cl)cccc1Cl)N2c1cccc(Cl)c1` (stereo not given)?
TGI [9]: 6.73 µM; TGI [10]: > 100 µM; TGI [1]: 66.6 µM; TGI [2]: 56.7 µM; TGI [3]: 11.6 µM; TGI [4]: > 100 µM; TGI [5]: > 100 µM; TGI [6]: 9.92 µM; TGI [7]: 34.6 µM; TGI [8]: 19.1 µM

`C=C1C(=O)O[C@@H]2[C@H]3O[C@]3(C)CCC=C(C)CC[C@@H]12` was tested. Which TGI [9] did it give?
The TGI was 45.3 µM.

And the TGI [10]?
The TGI was 37.7 µM.

And the TGI [2]?
The TGI was 52.7 µM.

And the TGI [3]?
The TGI was 35.1 µM.

What about the TGI [6] of the same molecule?
The TGI was 123 µM.

And the TGI [7]?
Its TGI is 56.4 µM.

What about the TGI [8] of the same molecule?
Its TGI is 63.6 µM.

What does the source list for `CC(=O)OCC1OC(On2ccccc2=S)C(OC(C)=O)C(OC(C)=O)C1OC(C)=O` (stereo not given)?
TGI [9]: > 100 µM; TGI [10]: > 100 µM; TGI [1]: > 100 µM; TGI [2]: > 100 µM; TGI [3]: > 100 µM; TGI [4]: > 100 µM; TGI [5]: > 100 µM; TGI [6]: > 100 µM; TGI [7]: > 100 µM; TGI [8]: > 100 µM

How did the TGI [9] turn out when `CSC(SC)=C1CC(=O)Nc2ccccc2C1=O` was run?
Its TGI is over 100 µM.

What about the TGI [10] of the same molecule?
Its TGI is over 100 µM.

What about the TGI [1] of the same molecule?
The TGI was over 100 µM.

What about the TGI [2] of the same molecule?
Its TGI is over 100 µM.

What about the TGI [3] of the same molecule?
Its TGI is over 100 µM.

What about the TGI [4] of the same molecule?
The TGI was over 100 µM.

And the TGI [5]?
The TGI was over 100 µM.

What about the TGI [7] of the same molecule?
Its TGI is over 100 µM.

What about the TGI [8] of the same molecule?
The TGI was over 100 µM.

Which results are given for `Cc1ccc(Nc2nc(=S)[nH]c3[nH]ncc23)cc1`?
TGI [9]: > 100 µM; TGI [10]: > 100 µM; TGI [1]: > 100 µM; TGI [2]: > 100 µM; TGI [3]: > 100 µM; TGI [4]: > 100 µM; TGI [5]: > 100 µM; TGI [6]: > 100 µM; TGI [7]: > 100 µM; TGI [8]: > 100 µM

Which TGI [9] does the source give for `OC1(c2ccccc2)CC2CCC(C1)N2CCc1ccccc1` (stereo not given) here?
Its TGI is over 100 µM.

And the TGI [10]?
The TGI was over 100 µM.

What about the TGI [1] of the same molecule?
Its TGI is over 100 µM.

What about the TGI [2] of the same molecule?
The TGI was over 100 µM.

And the TGI [3]?
The TGI was over 100 µM.

What about the TGI [4] of the same molecule?
The TGI was over 100 µM.

What about the TGI [5] of the same molecule?
Its TGI is over 100 µM.

And the TGI [6]?
The TGI was over 100 µM.

What about the TGI [7] of the same molecule?
The TGI was over 100 µM.

And the TGI [8]?
The TGI was over 100 µM.

`NC(=O)NC(=O)c1cnccn1` was tested. Which TGI [9] did it give?
The TGI was over 100 µM.

What about the TGI [10] of the same molecule?
Its TGI is over 100 µM.

And the TGI [1]?
Its TGI is over 100 µM.

And the TGI [2]?
Its TGI is over 100 µM.

And the TGI [3]?
The TGI was over 100 µM.

What about the TGI [5] of the same molecule?
The TGI was over 100 µM.

And the TGI [7]?
The TGI was over 100 µM.

What about the TGI [8] of the same molecule?
Its TGI is over 100 µM.
